Test results: patent US12441726B2, “Compounds and uses thereof” (Foghorn Therapeutics Inc., priority 2020, dated 2025)

Key:
BRM = BRM (Homo sapiens, UniProt P51531); test: ATPase catalytic activity assay (ADP-Glo), BRM; conditions: 30 nM BRM, 400 μM ATP; for IC50: BRM ATPase: IC50 (uM)
BRG-1 = BRG-1 (Homo sapiens, UniProt P51532); test: ATPase catalytic activity assay (ADP-Glo), BRG-1; conditions: for Emax: 1 h, read-out: BRG1 Max % Inhibition, ADP-Glo, 30 nM BRG-1, 400 μM ATP
[1] = system: Uveal melanoma cell lines (92-1, MP41, MP38, MP46), hematologic cancer and other cancer cell lines; test: Growth of uveal melanoma, hematological and other cancer cell lines, day 3 and day 7 (Cell-titer glo, GI50), Compound A; type: cell-based; conditions: FIG. 1
Protocol: (§1) Procedure: Uveal melanoma cell lines (92-1, MP41, MP38, MP46), prostate cancer cell lines (LNCAP), lung cancer cell lines (NCI-H1299), and immortalized embryonic kidney lines (HEK293T) were plated into 96 well plates with growth media (see Table 5). […] Cells were incubated at 37 degrees Celsius for 3 days. After three days of treatment, the media was removed from the cells and 30 microliters of TrypLE (Gibco) was added to cells for 10 minutes. Cells were detached from the plates and resuspended with the addition of 170 microliters of growth media. Cells from two DMSO-treated control wells were counted, and the initial number of cells plated at the start of the experiment, were re-plated into fresh-compound containing plates for an additional four days at 37 degrees Celsius. At day 7, cells were harvested as described above. On day 3 and day 7, relative cell growth was measured by the addition of Cell-titer glo (Promega) and luminescence was measured on an Envision plate reader (Perkin Elmer). […] At the time of cell splitting on days […], cells were split into new 96 well plates, and fresh compound was added four hours after re-plating.

[2] = system: Uveal melanoma cell lines, 92-1 or MP41; test: Comparison to clinical PKC and MEK inhibitors in uveal melanoma cell lines, 3-day growth (Compound A); type: cell-based; conditions: FIG. 2A and 2B
Protocol: (§2) Procedure: Uveal melanoma cell lines, 92-1 or MP41, were plated in 96 well plates in the presence of growth media (see Table 26). […] Cells were incubated at 37 degrees Celsius for 3 days. After three days of treatment, cell growth was measured with Cell-titer glow (Promega), and luminescence was read on an Envision plate reader (Perkin Elmer).

[3] = system: Uveal melanoma cell lines (92-1, MP41, MP38, MP46) and Non-small cell lung cancer cells (NCIH1299); test: Growth of uveal melanoma and non-small cell lung cancer cell lines, 3 days (Cell-titer glow); type: cell-based; conditions: 0 to 10 micromolar, FIG. 5
Protocol: Procedure: Uveal melanoma cell lines (92-1, MP41, MP38, MP46) and Non-small cell lung cancer cells (NCIH1299) were plated into 96 well plates with growth media (see Table 27). BRG1/BRM ATPase inhibitor, compound 67, was dissolved in DMSO and added to the cells in a concentration gradient from 0 to 10 micromolar at the time of plating. Cells were incubated at 37° C. for 3 days. After three days of treatment, cell growth was measured with Cell-titer glow (Promega), and luminescence was read on an Envision plate reader (Perkin Elmer).

[4] = system: Uveal melanoma cell lines, 92-1 or MP41; test: Comparison to clinical PKC and MEK inhibitors in uveal melanoma cell lines, 3-day growth (Compound B); type: cell-based; conditions: FIG. 6A and 6B
Protocol: as §2, with “27).” for “26).”, “37° C.” for “37 degrees Celsius”

[5] = system: PKC inhibitor (PKCi)-resistant MP41 uveal melanoma cells; test: 7-day growth inhibition assay, PKC inhibitor-resistant cells; type: cell-based; conditions: 7-day assay
Protocol: as §1
(§3) Procedure: MP41 uveal melanoma cells were made resistant to the PKC inhibitor (LXS196; MedChemExpress), by long-term culture in growth media (see Table 27) containing increasing concentrations of the compound, up to 1 micromolar.

parental MP41 cells = test: 7-day growth inhibition assay, parental cells; type: cell-based; conditions: 7-day assay; FIG. 7B
Protocol: as §1, §3

[6] = Body weight / tolerability in tumor-bearing mice; type: in vivo; conditions: all treatments, once daily oral gavage, 3 weeks; FIG. 8C
Protocol: Procedure: Nude mice (Envigo) were engrafted subcutaneously in the axillary region with 5×10^6 92-1 uveal melanoma cells in 50% Matrigel. Tumors were grown to a mean of ˜200 mm^3, at which point mice were grouped and dosing was initiated. […] Tumor volumes and body weights were measured over the course of 3 weeks, and doses were adjusted by body weight to achieve the proper dose in terms of mg/kg. At this time, animals were sacrificed, and tumors were dissected and imaged.

Sequence of BRG-1 (P51532 whole entry): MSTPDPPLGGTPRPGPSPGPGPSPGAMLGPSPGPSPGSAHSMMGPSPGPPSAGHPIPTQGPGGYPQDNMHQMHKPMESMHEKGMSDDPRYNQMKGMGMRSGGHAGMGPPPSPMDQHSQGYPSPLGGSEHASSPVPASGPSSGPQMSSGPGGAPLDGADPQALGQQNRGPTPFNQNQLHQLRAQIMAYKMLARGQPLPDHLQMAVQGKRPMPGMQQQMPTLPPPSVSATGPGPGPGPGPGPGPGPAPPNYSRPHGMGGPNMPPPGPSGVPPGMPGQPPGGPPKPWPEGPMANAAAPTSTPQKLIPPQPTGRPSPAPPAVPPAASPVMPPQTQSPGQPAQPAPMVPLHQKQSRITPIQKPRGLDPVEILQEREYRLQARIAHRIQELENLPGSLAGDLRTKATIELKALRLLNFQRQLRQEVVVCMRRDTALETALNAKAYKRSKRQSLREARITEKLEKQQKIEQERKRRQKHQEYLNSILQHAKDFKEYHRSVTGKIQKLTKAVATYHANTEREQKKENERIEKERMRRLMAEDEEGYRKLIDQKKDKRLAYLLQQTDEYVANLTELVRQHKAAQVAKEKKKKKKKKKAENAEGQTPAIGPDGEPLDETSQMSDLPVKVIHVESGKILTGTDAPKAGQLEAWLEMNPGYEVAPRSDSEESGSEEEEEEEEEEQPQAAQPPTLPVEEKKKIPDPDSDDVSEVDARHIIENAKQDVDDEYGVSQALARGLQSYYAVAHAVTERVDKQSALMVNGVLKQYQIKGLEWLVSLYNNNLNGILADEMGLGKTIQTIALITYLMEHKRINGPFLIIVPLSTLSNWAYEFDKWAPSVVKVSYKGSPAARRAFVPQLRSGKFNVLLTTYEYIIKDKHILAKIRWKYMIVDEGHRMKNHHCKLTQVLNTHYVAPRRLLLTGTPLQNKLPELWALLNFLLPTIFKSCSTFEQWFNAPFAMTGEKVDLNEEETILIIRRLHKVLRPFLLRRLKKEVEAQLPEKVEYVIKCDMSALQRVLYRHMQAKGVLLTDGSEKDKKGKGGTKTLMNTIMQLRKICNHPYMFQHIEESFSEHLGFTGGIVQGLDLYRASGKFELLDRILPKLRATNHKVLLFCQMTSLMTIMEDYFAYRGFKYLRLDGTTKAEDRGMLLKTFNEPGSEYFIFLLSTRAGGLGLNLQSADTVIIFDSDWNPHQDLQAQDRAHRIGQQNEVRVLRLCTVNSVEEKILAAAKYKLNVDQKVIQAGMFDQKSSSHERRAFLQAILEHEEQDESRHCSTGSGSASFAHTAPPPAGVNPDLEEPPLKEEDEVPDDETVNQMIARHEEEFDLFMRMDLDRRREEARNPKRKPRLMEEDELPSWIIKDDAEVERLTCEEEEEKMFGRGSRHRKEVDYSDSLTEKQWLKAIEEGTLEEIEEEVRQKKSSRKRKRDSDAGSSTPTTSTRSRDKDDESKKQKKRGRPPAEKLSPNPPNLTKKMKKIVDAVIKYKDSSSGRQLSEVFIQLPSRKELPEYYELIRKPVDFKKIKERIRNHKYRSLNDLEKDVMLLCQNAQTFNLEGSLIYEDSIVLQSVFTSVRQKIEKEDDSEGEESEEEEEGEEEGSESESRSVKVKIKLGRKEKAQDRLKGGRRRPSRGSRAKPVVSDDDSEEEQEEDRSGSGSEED
Sequence of BRM (P51531 whole entry): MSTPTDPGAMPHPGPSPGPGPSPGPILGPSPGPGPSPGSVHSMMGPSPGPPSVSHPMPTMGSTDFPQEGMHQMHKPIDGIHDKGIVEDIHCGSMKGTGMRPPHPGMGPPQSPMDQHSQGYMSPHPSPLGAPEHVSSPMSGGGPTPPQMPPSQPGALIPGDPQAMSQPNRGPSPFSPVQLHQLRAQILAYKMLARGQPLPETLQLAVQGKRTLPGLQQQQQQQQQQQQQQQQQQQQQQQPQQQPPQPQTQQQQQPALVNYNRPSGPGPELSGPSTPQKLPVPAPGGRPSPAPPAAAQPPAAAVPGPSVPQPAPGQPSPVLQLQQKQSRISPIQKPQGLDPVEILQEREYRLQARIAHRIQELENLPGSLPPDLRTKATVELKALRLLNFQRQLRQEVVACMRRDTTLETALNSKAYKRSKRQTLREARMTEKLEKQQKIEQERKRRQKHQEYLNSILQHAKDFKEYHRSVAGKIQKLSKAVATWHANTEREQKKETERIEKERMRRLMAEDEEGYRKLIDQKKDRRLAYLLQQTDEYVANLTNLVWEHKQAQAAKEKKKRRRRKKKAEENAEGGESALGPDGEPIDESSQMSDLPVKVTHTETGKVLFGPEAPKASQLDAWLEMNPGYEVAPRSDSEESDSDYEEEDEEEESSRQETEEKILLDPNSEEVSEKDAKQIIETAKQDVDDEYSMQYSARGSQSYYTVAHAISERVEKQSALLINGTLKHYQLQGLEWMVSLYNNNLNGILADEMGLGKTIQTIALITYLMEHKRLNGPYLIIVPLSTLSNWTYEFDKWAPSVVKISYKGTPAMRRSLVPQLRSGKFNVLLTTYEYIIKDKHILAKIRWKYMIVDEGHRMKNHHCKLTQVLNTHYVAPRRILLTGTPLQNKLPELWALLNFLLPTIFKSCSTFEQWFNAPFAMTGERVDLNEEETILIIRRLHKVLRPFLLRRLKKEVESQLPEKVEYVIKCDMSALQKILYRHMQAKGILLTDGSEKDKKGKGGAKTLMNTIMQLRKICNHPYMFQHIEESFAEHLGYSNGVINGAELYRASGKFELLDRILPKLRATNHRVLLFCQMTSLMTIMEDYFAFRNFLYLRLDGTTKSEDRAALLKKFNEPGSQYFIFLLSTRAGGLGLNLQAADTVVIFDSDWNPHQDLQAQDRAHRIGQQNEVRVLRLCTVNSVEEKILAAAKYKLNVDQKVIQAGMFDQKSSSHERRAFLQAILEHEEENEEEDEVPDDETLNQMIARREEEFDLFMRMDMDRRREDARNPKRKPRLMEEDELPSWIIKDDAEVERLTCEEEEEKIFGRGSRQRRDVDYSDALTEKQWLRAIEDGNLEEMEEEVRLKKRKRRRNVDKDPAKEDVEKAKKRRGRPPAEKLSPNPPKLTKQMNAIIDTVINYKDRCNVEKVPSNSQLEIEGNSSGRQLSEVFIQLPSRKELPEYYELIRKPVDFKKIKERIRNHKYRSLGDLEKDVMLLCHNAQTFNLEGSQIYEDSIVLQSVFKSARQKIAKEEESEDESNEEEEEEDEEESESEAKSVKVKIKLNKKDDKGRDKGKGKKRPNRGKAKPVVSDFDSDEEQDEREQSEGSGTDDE

Compound	BRM Max % Inhibition (BRM) [%]	IC50 (BRM) [µM]	IC50 (BRG-1) [nM]	Emax (BRG-1) [%]	other results
COc1c(F)cccc1-c1ccc2cnc(CNC(=O)c3ccc4c(c3)[C@](C)(C#N)COC4)cc2n1 [Compound 516]	96	0.1 to 0.5	500 to 1000	77	–
COc1ccc(F)cc1-c1ccc2cnc(CNC(=O)c3ccc4c(c3)[C@](C)(C#N)COC4)cc2n1 [Compound 517]	98	< 0.1	100 to 500	88	–
C[C@@]1(C#N)COCc2ccc(C(=O)NCc3cc4nc(-c5cc(F)cc(F)c5)ccc4cn3)cc21 [Compound 518]	96	0.1 to 0.5	500 to 1000	72	–
CSCC[C@H](NC(=O)c1ccc(N)cc1)C(=O)Nc1nc(-c2cccc(-c3ccncc3)c2)cs1 [Compound A]	–	–	–	–	sensitivity of cell lines to BRG1/BRM inhibition (growth) ([1]; uveal melanoma and hematologic cancer cell lines vs other tested cell lines, 0 to 10 micromolar): more sensitive to BRG1/BRM inhibition than the other tested cell lines; duration of growth inhibition ([1]; uveal melanoma and hematologic cancer cell lines): maintained through day 7; growth inhibition compared to clinical PKC (LXS196) and MEK (Selumetinib) inhibitors ([2]; 3 days, 0 to 10 micromolar): comparable growth inhibition of uveal melanoma cells as the clinical PKC and MEK inhibitors; onset of inhibition compared to clinical PKC and MEK inhibitors [2]: faster onset of inhibition than the clinical PKC and MEK inhibitors
CSCC[C@H](NC(=O)c1ccn(S(C)(=O)=O)c1)C(=O)Nc1nc(-c2cccc(-c3ccncc3)c2)cs1 [Compound B, (S)-1-(methylsulfonyl)-N-(4-(methylthio)-1-oxo-1-((4-(3-(pyridin-4-yl)phenyl)thiazol-2-yl)amino)butan-2-yl)-1H-pyrrole-3-carboxamide]	–	–	–	–	growth inhibition in the uveal melanoma cell lines [3]: potent growth inhibition; growth inhibition compared to clinical PKC (LXS196) and MEK (Selumetinib) inhibitors ([4]; 3 days, 0 to 10 micromolar): more potent effects on growth inhibition of uveal melanoma cells as compared to the clinical PKC and MEK inhibitors; onset of growth inhibition compared to clinical PKC and MEK inhibitors [4]: faster onset of growth inhibition than the clinical PKC and MEK inhibitors; growth inhibition of PKCi-resistant cell line ([5]; FIG. 7B): strong growth inhibition; sensitivity of PKCi-resistant cells relative to parental MP41 cells ([5]; FIG. 7B): more sensitive to Compound B than were the parental MP41 cells; growth inhibition of parental cell line (parental MP41 cells): strong growth inhibition
C[C@@H]1CN(c2cccc(-c3csc(NC(=O)CNC(=O)c4ccn(C(C)(C)C)c4)n3)n2)C[C@H](C)O1 [Compound C, 1-(tert-butyl)-N-(2-((4-(6-(cis-2,6-dimethylmorpholino)pyridin-2-yl)thiazol-2-yl)amino)-2-oxoethyl)-1H-pyrrole-3-carboxamide]	–	–	–	–	tolerability / body weight change [6]: well tolerated with no body weight loss observed
CC1(N)CCN(c2cccnc2NC(=O)c2nc(-c3ncccc3C(F)(F)F)cnc2N)CC1 [LXS196, reference compound]	–	–	–	–	tolerated concentration for growth, PKCi-resistant vs parental cells ([5]; FIG. 7A): could tolerate growth at higher concentrations of LXS196 than could the parental MP41 cell line

Second part, led by results:

BRM Max % Inhibition (BRM) [%]	IC50 (BRM) [µM]	IC50 (BRG-1) [nM]	Emax (BRG-1) [%]	Compound	other results
96	< 0.1	100 to 500	90	C[C@@]1(C#N)COCc2ccc(C(=O)NCc3cc4nc(-c5ccc(C(F)F)cc5)ccc4cn3)cc21 [Compound 519]	–
88	0.1 to 0.5	500 to 1000	53	C[C@@]1(C#N)COCc2ccc(C(=O)NCc3cc4nc(-c5cnccn5)ccc4cn3)cc21 [Compound 520]	–
85	0.1 to 0.5	> 1000	34	C[C@@]1(C#N)COCc2ccc(C(=O)NCc3cc4nc(-c5ccccc5C(F)F)ccc4cn3)cc21 [Compound 521]	–
97	0.1 to 0.5	500 to 1000	83	C[C@@]1(C#N)COCc2ccc(C(=O)NCc3ncc4ccc(-c5ccccc5)cc4n3)cc21 [Compound 522]	–
90	0.1 to 0.5	500 to 1000	58	COC(=O)N1CCC2CC2(c2ccc3cnc(CNC(=O)c4ccc5c(c4)[C@](C)(C#N)COC5)cc3n2)C1 (some centres unmarked) [Compound 523]	–
95	0.1 to 0.5	> 1000	50	C[C@@]1(C#N)COCc2ccc(C(=O)NCc3cc4nn(-c5ccccc5)cc4cn3)cc21 [Compound 524]	–
97	0.1 to 0.5	500 to 1000	69	O=C(NCc1cc2nc(-c3ccccc3)ccc2cn1)c1ccc2c(c1)[C@@](F)(C(F)F)COC2 [Compound 525]	–
90.7	0.1 to 0.5	500 to 1000	61.2	C[C@@H]1CN(c2cccc(-c3ccc4[nH]c(CNC(=O)c5ccc6c(c5)[C@](C)(CO)CC6)nc4c3)c2)C[C@H](C)O1 [Compound 526]	–
